Assay results reported in US5541189A, “Substituted aliphatic amine-containing macrocyclic immunomodulators” (Abbott Laboratories, priority 1995, dated 1996).

How the values were obtained:
[1] = system: human mixed lymphocyte reaction (MLR); assay: human mixed lymphocyte reaction (MLR) assay, immunosuppressant activity; assay type: cell-based; conditions: in vitro
Protocol: The immunosuppressant activity of the compounds of the present invention was determined using the human mixed lymphocyte reaction (MLR) assay described by Kino, T. et al. in Transplantation Proceedings XIX(5):36-39, Suppl. 6 (1987), incorporated herein by reference.

P-glycoprotein = conditions: known; increasing sensitivity of multidrug resistant (MDR) cells to chemotherapeutic agents; cited from earlier work

Molecule `CC[C@@H]1/C=C(\C)C[C@H](C)C[C@H](OC)[C@H]2O[C@@](O)(C(=O)C(=O)N3CCCC[C@H]3C(=O)O[C@H](/C(C)=C/[C@@H]3CC[C@H](NCCCN(C)C)[C@H](OC)C3)[C@H](C)[C@@H](O)CC1=O)[C@H](C)C[C@@H]2OC` [Example 7] has an IC50 [1] of under 1000 nM.
For `CC[C@@H]1/C=C(\C)C[C@H](C)C[C@H](OC)[C@H]2O[C@@](O)(C(=O)C(=O)N3CCCC[C@H]3C(=O)O[C@H](/C(C)=C/[C@@H]3CC[C@H](NCCN(CC)CC)[C@H](OC)C3)[C@H](C)[C@@H](O)CC1=O)[C@H](C)C[C@@H]2OC` [Example 13], the IC50 [1] was under 1000 nM.
`CC[C@@H]1/C=C(\C)C[C@H](C)C[C@H](OC)[C@H]2O[C@@](O)(C(=O)C(=O)N3CCCC[C@H]3C(=O)O[C@H](/C(C)=C/[C@@H]3CC[C@@H](NCCCN(C)C)[C@H](OC)C3)[C@H](C)[C@@H](O)CC1=O)[C@H](C)C[C@@H]2OC` [Example 47] showed an IC50 [1] of under 1000 nM.
In the case of `C=CC[C@@H]1/C=C(\C)C[C@H](C)C[C@H](OC)[C@H]2O[C@@](O)(C(=O)C(=O)N3CCCC[C@H]3C(=O)O[C@H](/C(C)=C/[C@@H]3CC[C@@H](O)[C@H](OC)C3)[C@H](C)[C@@H](O)CC1=O)[C@H](C)C[C@@H]2OC` [FK-506], the “modulators of P-glycoprotein” value (P-glycoprotein) is listed as “effective modulators of P-glycoprotein”.
`CC[C@@H]1/C=C(\C)C[C@H](C)C[C@H](OC)[C@H]2O[C@@](O)(C(=O)C(=O)N3CCCC[C@H]3C(=O)O[C@H](/C(C)=C/[C@@H]3CC[C@H](N(CC)CCN(CC)CC)[C@H](OC)C3)[C@H](C)[C@@H](O)CC1=O)[C@H](C)C[C@@H]2OC` [Example 29] showed an IC50 [1] of under 1000 nM.
